Laboratory results: patent US8957106B2, “Iminosugar treatment of tumors” (The Chancellor, Masters and Scholars of the University of …, priority 2007, dated 2015)

How the values were obtained:
[1] = tested on: SKMel28 melanoma cells; assay: MTS cell viability assay, SKMel28; format: cell-based; settings: Homo sapiens, SK-MEL-28, SKMel28, 24 h, read-out: IC50 (concentration reducing number of viable cells by 50%)
Description: (§1) Cells were cultured at indicated densities for 24 h, medium was removed and the incubation was continued in a fresh culture medium containing various GC2 or DTIC concentrations. In control experiments, cells were grown in a culture medium containing GC2 buffer.
(§2) The standard […] (MTS)-3-(4,5-dimethylthiazol-2-yl)-5-(3-carboxymethoxyphenyl)-2-(4-sulphophenyl)-2H-tetrazolium inner salt solution assay was performed in order to examine the cytotoxic/cytostatic effect of GC2 on melanoma cells. Briefly, 7.5×10^3 cells were seeded in 96-well microtiter plates (Nunc). After an overnight incubation, serial dilutions of GC2 or DTIC were added in triplicate to a final volume of 100 μl. The blank was represented by a culture medium without cells containing the highest GC2 or DTIC concentration. After 24 h of incubation 20 μl MTS was added to each well and all samples were incubated for 3 h at 37° C. An absorbance of each well was read at 450 nm in a microplate reader. A percentage of cell viability was calculated considering that 100% cell viability was represented by an absorbance of untreated samples […]. Alternatively, the number of viable cells was determined by Trypan blue exclusion test. Melanoma cells treated with GC2 were trypsinized and cells negative for blue staining (viable cells) were counted using a hemocytometer. […]

[2] = tested on: B16F10 melanoma cells; assay: MTS cell viability assay, B16F10; format: cell-based, murine; settings: Mus musculus, B16-F10, B16F10, 24 h, read-out: IC50 (concentration reducing number of viable cells by 50%)
Description: as §1, §2

[3] = tested on: B16D2 melanoma cells; assay: MTS cell viability assay, B16D2; format: cell-based; settings: B16D2, 24 h, read-out: IC50 (concentration reducing number of viable cells by 50%)
Description: as §1, §2

[4] = Solubility in solvent mixture; format: physicochemical; settings: solvent mixture (GC2 buffer)
[5] = tested on: MelJuSo cells; assay: Autophagic vesicle detection with GFP-LC3; format: cell-based, human; settings: MelJuSo transfected with GFP-LC3, 6 μM
Description: LC3 is a protein recruited to an autophagosome membrane. The recruitment process is essential for autophagy and LC3 is a specific marker of the process, see Kabeya Y., et al., EMBO J. 19, 5720-5728, 2000. […] Cells were transiently transfected with GFP-LC3 plasmid DNA using the liposomal transfection kit Lipofectamine PLUS™ Reagent (Gibco-BRL) as described in Negroiu, G., et al., J. Biol. Chem. 278, 27035-27042, 2003. 24 h after transfection cells were treated with GC2 for the indicated time periods and analyzed by fluorescence microscopy.
The localization of LC3 (microtubule-associated protein1 light chain 3), which is an established marker for autophagosome membranes, see e.g. Kabeya, Y., et al. EMBO J., 19, 5720-5728, 2000, was examined in cells treated with GC2. LC3 is newly synthetised and recruited to autophagosomal membranes when autophagy is activated and is detected as cup- and ring shaped structures, see e.g. Mizushima, N. et al. Int. J. Biochem. & Cell Biol. 36, 2491-2502, 2004. […] In GC2-treated MNT-1 cells, very few vacuoles were observed by a phase contrast microscopy. The MNT-1 cell line was also the least positive for autophagic marker (data not shown).

[6] = tested on: actin network in SKMel28 and MelJuSo cells; assay: Actin staining with Alexa Fluor 594 phalloidin, fluorescence microscopy; format: cell-based; settings: 6 μM, 3 h
Description: Tumor cells were cultured 24 h on cover glasses, treated with GC2, and processed as described in Negroiu, G., et al. J. Biol. Chem. 278, 27035-27042, 2003. The acidic vesicular compartments were detected following incubation of live cells GC2 treated with Lysotracker® Red (0.125 μl/ml culture medium) for 30 min at 37° C. Fixed cells were incubated with the following primary antibodies: mouse anti-EEA1 (1:100), human-CD107A (anti-Lamp1) (1:50), a mouse anti-α tubulin (1:200) followed by an appropriate Alexa Fluor® 488 conjugated secondary antibodies (1:400) or with Alexa Fluor® 594 phalloidin. Finally, nuclei of fixed cells were stained with 5 mM Hoechst dye 33342. Cells were washed three times with PBS and mounted in Vectashield® mounting medium.
Whether tumor cell compartments and cytoskeletal elements are altered by GC2 treatment was analysed utilizing molecular markers for two main cell compartments: 1) EEA1 for early endosomes, which are accessed first by all endocytosed molecules and 2) Lamp-1 for lysosomes, the major degradative compartment. Actin filaments were labeled with Alexa Fluor® 594 phalloidin and microtubules with an anti-α-tubulin antibody; all samples were analyzed by fluorescence microscopy. […] Following GC2 treatment both endocytic markers were redistributed in large substructures detected also by phase contrast microscopy. […]

IC50 [1]: 7 to 8 µM
IC50 [2]: 7 to 8 µM
IC50 [3]: 11 µM
solubility [4]: good solubility
Compound: CC(=O)O.CCCCCCCCCN1[C@@H](CO)[C@@H](O)[C@H](O)[C@@H]1CCCCCCCC [GC2, (2S,3R,4R,5S)-3,4-dihydroxy-N-nonyl-5-octyl-2 hydroxymethylpyrrolidinium acetate]
GFP-LC3 distribution (autophagic marker) [5]: punctate pattern of bright fluorescence
pattern of the fluorescent actin marker [6]: disrupted
